Source: patent publication US10137122B2, “Kinase inhibitors and methods of use thereof” (priority 2012, dated 2018)
Where two headings read alike, the source gives them in different places.

Experiments:
[1] = test system: TCF/LEF reporter in HEK293-pBARL cells; test: cells; conditions: Homo sapiens
Description: HEK293-pBARL cells were derived from HEK293 cells and they stably expressed a firefly-luciferase reporter gene driven by a promoter containing 12 copies of TCF/LEF binding sequences. These cells were maintained in DMEM and supplemented with 10% FBS and 1% penicillin-streptomycin (Invitrogen). Reporter gene assays were conducted in anti-biotic free media. […] These cells also contained a renilla-luciferase reporter gene driven by the ubiquitous EF1α promoter as a control. HEK293-pBarl reporter cell lines were seeded into 384-well culture plates (Corning) at 6000 cells/well. 24 hours after plating, cells were treated overnight with relevant compounds and assayed using DualGlo assay kit (Promega). Luminescent intensities were read by EnVision (PerkinElmer, Waltham, Mass.). Firefly luciferase intensity is normalized by renilla luciferase intensity.
Cells were cultured in 384 well plates to appropriate density (40 μl total plating volume). 24 hours after plating, cells were treated with 100 nl compounds. 24 hours after incubation with compounds (48 hours after plating), assay reagents were prepared by mixing Luciferase Assay solution with Luciferase substrate and Stop & Glo solution to Stop & Glo substrate (extra reagents can be aliquoted and frozen for future use and are stable for at least one freeze/thaw cycle). […] The plate was spun down and 10 minutes were allowed for signal stabilization. Luciferase signal on the Perkin Elmer EnVision using the following parameters: Distance between plate & detector (mm)=0.2; Measurement time(s)=0.1; Glow (CT2) correction factor=0. Once the initial data is secure, a volume of Stop & Glo was added equal to each well equal to the volume of Luciferase reagent added above (If 10 μl Luciferase Reagent was added, 10 μl Stop & Glo was also added). The plate was spun down and 10 minutes were allowed for signal stabilization. The plate was read on the EnVision using the same parameters detailed above.

[2] = test system: phospho-Tau (Ser199) in SH-SY5Y cells; test: Tau phosphorylation assay (phospho-Tau Ser199 ELISA); assay type: cell-based, human; conditions: Homo sapiens, SH-SY5Y, read-out: p-Tau Inhibition ELISA EC50 SH-SY5Y
Description: Tau Phosphorylation and Total Tau Assay
SH-SY5Y cells were maintained in DMEM supplemented with 10% heat-inactivated FBS and 1% penicillin-streptomycin (Invitrogen) unless otherwise stated. ELISA kits for phospho-Tau (Ser199) and total Tau detection were purchased from Invitrogen (KHB0041, and KHB7041 respectively). Briefly, SH-SY5Y cells were seeded at 50,000 cells/200 μL/well in 96 well plates and after overnight incubation, treated with various doses of chemical compounds at 0.2 μL/well. The next day cells were washed with PBS twice before being lysed in 100 μL Lysis buffer/well. 50 μL of cell lysate of each sample was transferred to an ELISA vial coated with the capture antibody, and the mixture was incubated at room temperature for 2 hours, before the supernatant was aspired, and each vial washed four times. 100 μL of detection antibody was then added to each well, incubated for 1 hour, and then washed four times. […] Data were scaled using the positive and neutral controls and fitted for IC50.
A standard protocol using an immunoassay kit to quantify total Tau protein and phospho-Tau (Ser199) protein in SH-SY5Y human neuroblastoma cells was employed. Human Tau (Total) ELISA kit (#KHB0041) and human phosphor-Tau (Ser199) ELISA kit were purchased from Invitrogen (#KHB7041)
50,000 cells were seeded in 200 μl per well in cell culture media (250,000 cells/ml). Cells were incubated overnight @37° C. Cells were induced with appropriate doses of inhibitors and incubated for approximately 24 hrs @37° C. Cell lysates were harvested by washing cells once with cold PBS and adding 100 μl cold lysis buffer and pipette up and down vigorously. Lysate was transferred to 96 well PCR plate and centrifuged at 4,000 rpm for 20 minutes at 4° C.
Well strips were warmed and inserted into the frame. 100μ of standard diluent buffer were loaded into ZERO wells, and 100 ul of each standard concentrations (both total Tau and pTau) were loaded into wells in duplicate. Samples were loaded to each well that would be analyzed for total Tau, 85 μl standard diluent buffer and 15 μl cell lysate were added. To each well that will be analyzed for pTau (Ser199) 50 μl standard diluent buffer+50 μl cell lysate were added. Plates were tapped gently on the side to mix. Certain wells were left empty for chromogen blank. Plates were covered and incubated for 2 hours at room temperature. Wells were aspirated 4 times (400 μl diluted wash buffer, left for 30 seconds, aspirated all wells; alternatively used automated plate washer and programmed in a 30 second hold between each cycle). 100 μl of detection antibody solution were added to each well except chromogen blanks. Anti-total Tau was added to wells being analyzed for total Tau, anti-pTau (Ser199) was added to wells being analyzed for pTau (Ser199), and plates were tapped gently on the side to mix. Plates were covered and incubated for 1 hour at room temperature, then wells were aspirated and washed 4 times as described above. 100 μl of anti-rabbit IgG HRP working solution (prepared ahead) were added to each well except chromogen blanks, and plates were covered and incubated for 30 minutes at room temperature, then wells were aspirated and washed 4 times as described above. 100 μl of stabilized chromogen were added to each well (the liquid turned blue). Plates were incubates for 30 minutes at room temperature in the dark, then 100 μl of stop solution were added to each well, and plates were tapped gently on the side to mix. Absorbance of each well was read at 450 nm (within 2 hours of adding stop solution).

[3] = test system: β-catenin nuclear translocation in U2-OS cells; test: β-Catenin nuclear localization assay; assay type: cell-based; conditions: Homo sapiens, U2OS, read-out: beta-Catenin translocation EC50
Description: β-Catenin Nuclear Localization Assay
U2-OS cells stably expressing two complimentary β-galactosidase fragments (one part on β-Catenin and the other constitutively expressed in the cell nucleus) were maintained in DMEM F12 supplemented with 10% FBS. When β-catenin translocates to the nucleus, the complimentary fragments form a complete β-galactosidase, the amount of which is then quantified by β-galactosidase activity (DiscoveRx). Cells were seeded in a 384-well CulturPlate (Perkin Elmer, Boston, Mass.) with 10,000 per well in 20 μL DMEM F12 containing 10% FCS, 100 U/ml penicillin and 100 μg/mL streptomycin. After overnight incubation at 37° C., cells were stimulated with 100 nL test compound/well and then returned to the incubator for 6 h. Cells were disrupted using 12 μL substrate-containing lysis buffer from the PathHunter Detection Kit in the formulation specified by the supplier (DiscoveRx). Plates were incubated in the dark for 1 h at room temperature before measurement of β-galactosidase activity (luminescence) on an EnVision plate reader (PerkinElmer, Waltham, Mass.).

[4] = HEK293, read-out: TCF/LEF EC50 (μM)
[5] = HEK293, read-out: TCF/LEF EC50 (μM), HEK293 reporter cells

EC50 [2] | Compound | EC50 [1, 4] | also measured
– | Cc1[nH]nc2c1C(c1cccs1)C1=C(CC(C)(C)CC1=O)N2 (racemic) [Compound 5, 3,7,7-trimethyl-4-(thiophen-2-yl)-6,7,8,9-tetrahydro-1H-pyrazolo[3,4-b]quinolin-5(4H)-one] | > 25 µM | –
9.14 µM | COc1ccccc1C1C2=C(CC(C)(C)CC2=O)Nc2n[nH]c(C)c21 (racemic) [Compound 20, 4-(2-methoxyphenyl)-3,7,7-trimethyl-6,7,8,9-tetrahydro-1H-pyrazolo[3,4-b]quinolin-5(4H)-one] | 17.9 µM | –
– | COc1ccccc1C1C2=C(CC(C)(C)CC2=O)Nc2n[nH]c(C(F)(F)F)c21 (racemic) [Compound 53, 4-(2-methoxyphenyl)-7,7-dimethyl-3-(trifluoromethyl)-6,7,8,9-tetrahydro-2H-pyrazolo[3,4-b]quinolin-5(4H)-one] | – | EC50 [1, 5]: 16.9 µM; EC50 [3]: 14 µM
– | Cc1[nH]nc2c1[C@H](c1ccccc1Br)C1=C(CC(C)(C)CC1=O)N2 (racemic) [Compound 80, 4-(2-bromophenyl)-3,7,7-trimethyl-6,7,8,9-tetrahydro-2H-pyrazolo[3,4-b]quinolin-5(4H)-one] | 5.63 µM | –
22.2 µM | CCC1(c2ccccc2)C2=C(CC(C)(C)CC2=O)Nc2n[nH]c(C)c21 (racemic) [Compound 89, 9-ethyl-1,6,6-trimethyl-9-phenyl-5,6,7,9-tetrahydro-2H-pyrazolo[3,4-b]quinolin-8(4H)-one] | – | –
1.8 µM | Cc1[nH]nc2c1[C@H](c1ccccc1C(F)(F)F)C1=C(CC(C)(C)CC1=O)N2 (stereo in doubt) [Compound 28, 3,7,7-trimethyl-4-(2-(trifluoromethyl)phenyl)-6,7,8,9-tetrahydro-2H-pyrazolo[3,4-b]quinolin-5(4H)-one] | 4.8 µM | EC50 [3]: 6.32 µM
> 30 µM | Cc1[nH]nc2c1[C@@H](c1ccccc1C(F)(F)F)C1=C(CC(C)(C)CC1=O)N2 (stereo in doubt) [Compound 29, 3,7,7-trimethyl-4-(2-(trifluoromethyl)phenyl)-6,7,8,9-tetrahydro-2H-pyrazolo[3,4-b]quinolin-5(4H)-one] | > 25 µM | EC50 [3]: > 50 µM
0.426 µM | CC1(C)CC(=O)C2=C(C1)Nc1n[nH]c(C(F)(F)F)c1[C@@H]2c1ccccc1C(F)(F)F (stereo in doubt) [Compound 72, 7,7-dimethyl-3-(trifluoromethyl)-4-(2-(trifluoromethyl)phenyl)-6,7,8,9-tetrahydro-2H-pyrazolo[3,4-b]quinolin-5(4H)-one] | 1.49 µM | –
22 µM | CC1(C)CC(=O)C2=C(C1)Nc1n[nH]c(C(F)(F)F)c1[C@H]2c1ccccc1C(F)(F)F (stereo in doubt) [Compound 73, 7,7-dimethyl-3-(trifluoromethyl)-4-(2-(trifluoromethyl)phenyl)-6,7,8,9-tetrahydro-2H-pyrazolo[3,4-b]quinolin-5(4H)-one] | > 25 µM | –
– | Cc1[nH]nc2c1C(c1ccsc1)C1=C(CC(C)(C)CC1=O)N2 (centres unmarked) [Compound 8, 3,7,7-trimethyl-4-(thiophen-3-yl)-6,7,8,9-tetrahydro-1H-pyrazolo[3,4-b]quinolin-5(4H)-one] | > 25 µM | –
– | Cc1[nH]nc2c1C(c1ccc(Cl)s1)C1=C(CC(C)(C)CC1=O)N2 (centres unmarked) [Compound 9, 4-(5-chlorothiophen-2-yl)-3,7,7-trimethyl-6,7,8,9-tetrahydro-1H-pyrazolo[3,4-b]quinolin-5(4H)-one] | > 25 µM | –
– | Cc1[nH]nc2c1C(c1ccccc1F)C1=C(CC(C)(C)CC1=O)N2 (centres unmarked) [Compound 10, 4-(2-fluorophenyl)-3,7,7-trimethyl-6,7,8,9-tetrahydro-1H-pyrazolo[3,4-b]quinolin-5(4H)-one] | 12.7 µM | –
– | Cc1[nH]nc2c1C(c1cccc(F)c1)C1=C(CC(C)(C)CC1=O)N2 (centres unmarked) [Compound 11, 4-(3-fluorophenyl)-3,7,7-trimethyl-6,7,8,9-tetrahydro-1H-pyrazolo[3,4-b]quinolin-5(4H)-one] | > 25 µM | –
– | Cc1[nH]nc2c1C(c1ccc(F)cc1)C1=C(CC(C)(C)CC1=O)N2 (centres unmarked) [Compound 12, 4-(4-fluorophenyl)-3,7,7-trimethyl-6,7,8,9-tetrahydro-1H-pyrazolo[3,4-b]quinolin-5(4H)-one] | > 25 µM | –
2.49 µM | Cc1[nH]nc2c1C(c1ccccc1Cl)C1=C(CC(C)(C)CC1=O)N2 (centres unmarked) [Compound 13, 4-(2-chlorophenyl)-3,7,7-trimethyl-6,7,8,9-tetrahydro-2H-pyrazolo[3,4-b]quinolin-5(4H)-one] | 24 µM | EC50 [3]: 41.1 µM
– | Cc1[nH]nc2c1C(c1cccc(Cl)c1)C1=C(CC(C)(C)CC1=O)N2 (centres unmarked) [Compound 14, 4-(3-chlorophenyl)-3,7,7-trimethyl-6,7,8,9-tetrahydro-1H-pyrazolo[3,4-b]quinolin-5(4H)-one] | 31.3 µM | –
– | Cc1[nH]nc2c1C(c1ccc(Cl)cc1)C1=C(CC(C)(C)CC1=O)N2 (centres unmarked) [Compound 15, 4-(4-chlorophenyl)-3,7,7-trimethyl-6,7,8,9-tetrahydro-1H-pyrazolo[3,4-b]quinolin-5(4H)-one] | > 25 µM | –
– | Cc1cccc(C2C3=C(CC(C)(C)CC3=O)Nc3n[nH]c(C)c32)c1 (centres unmarked) [Compound 18, 3,7,7-trimethyl-4-(m-tolyl)-6,7,8,9-tetrahydro-2H-pyrazolo[3,4-b]quinolin-5(4H)-one] | > 25 µM | EC50 [3]: > 50 µM

EC50 [2] | Compound | EC50 [1, 4] | also measured
– | Cc1ccc(C2C3=C(CC(C)(C)CC3=O)Nc3n[nH]c(C)c32)cc1 (centres unmarked) [Compound 19, 3,7,7-trimethyl-4-(p-tolyl)-6,7,8,9-tetrahydro-1H-pyrazolo[3,4-b]quinolin-5(4H)-one] | > 25 µM | –
> 30 µM | COc1ccccc1[C@H]1C2=C(CC(C)(C)CC2=O)Nc2n[nH]c(C)c21 [Compound 21, 4-(2-methoxyphenyl)-3,7,7-trimethyl-6,7,8,9-tetrahydro-1H-pyrazolo[3,4-b]quinolin-5(4H)-one] | > 25 µM | –
– | COc1cccc(C2C3=C(CC(C)(C)CC3=O)Nc3n[nH]c(C)c32)c1 (centres unmarked) [Compound 23, 4-(3-methoxyphenyl)-3,7,7-trimethyl-6,7,8,9-tetrahydro-1H-pyrazolo[3,4-b]quinolin-5(4H)-one] | > 25 µM | –
– | COc1ccc(C2C3=C(CC(C)(C)CC3=O)Nc3n[nH]c(C)c32)cc1 (centres unmarked) [Compound 24, 4-(4-methoxyphenyl)-3,7,7-trimethyl-6,7,8,9-tetrahydro-1H-pyrazolo[3,4-b]quinolin-5(4H)-one] | > 25 µM | –
– | Cc1[nH]nc2c1C(c1ccc3c(c1)OCO3)C1=C(CC(C)(C)CC1=O)N2 (centres unmarked) [Compound 26, 4-(benzo[d][1,3]dioxol-5-yl)-3,7,7-trimethyl-6,7,8,9-tetrahydro-1H-pyrazolo[3,4-b]quinolin-5(4H)-one] | > 25 µM | –
– | Cc1[nH]nc2c1C(c1ccc(C(F)(F)F)cc1)C1=C(CC(C)(C)CC1=O)N2 (centres unmarked) [Compound 31, 3,7,7-trimethyl-4-(4-(trifluoromethyl)phenyl)-6,7,8,9-tetrahydro-2H-pyrazolo[3,4-b]quinolin-5(4H)-one] | > 25 µM | EC50 [3]: > 50 µM
– | Cc1[nH]nc2c1[C@@H](c1ccccc1C#N)C1=C(CC(C)(C)CC1=O)N2 [Compound 32, 2-(3,7,7-trimethyl-5-oxo-4,5,6,7,8,9-hexahydro-2H-pyrazolo[3,4-b]quinolin-4-yl)benzonitrile] | 23.4 µM | –
– | Cc1[nH]nc2c1C(c1ccc(C#N)cc1)C1=C(CC(C)(C)CC1=O)N2 (centres unmarked) [Compound 34, 4-(3,7,7-trimethyl-5-oxo-4,5,6,7,8,9-hexahydro-2H-pyrazolo[3,4-b]quinolin-4-yl)benzonitrile] | > 25 µM | –
– | Cc1[nH]nc2c1C(c1ccc(F)cc1Cl)C1=C(CC(C)(C)CC1=O)N2 (centres unmarked) [Compound 35, 4-(2-chloro-4-fluorophenyl)-3,7,7-trimethyl-6,7,8,9-tetrahydro-1H-pyrazolo[3,4-b]quinolin-5(4H)-one] | > 25 µM | –
– | Cc1[nH]nc2c1C(c1ccccn1)C1=C(CC(C)(C)CC1=O)N2 (centres unmarked) [Compound 36, 3,7,7-trimethyl-4-(pyridin-2-yl)-6,7,8,9-tetrahydro-1H-pyrazolo[3,4-b]quinolin-5(4H)-one] | > 25 µM | –
– | Cc1[nH]nc2c1C(c1cccnc1)C1=C(CC(C)(C)CC1=O)N2 (centres unmarked) [Compound 37, 3,7,7-trimethyl-4-(pyridin-3-yl)-6,7,8,9-tetrahydro-1H-pyrazolo[3,4-b]quinolin-5(4H)-one] | > 25 µM | –
– | Cc1[nH]nc2c1C(c1ccncc1)C1=C(CC(C)(C)CC1=O)N2 (centres unmarked) [Compound 38, 3,7,7-trimethyl-4-(pyridin-4-yl)-6,7,8,9-tetrahydro-1H-pyrazolo[3,4-b]quinolin-5(4H)-one] | – | EC50 [1, 5]: > 25 µM
– | Cc1[nH]nc2c1C(c1ccc(Br)cn1)C1=C(CC(C)(C)CC1=O)N2 (centres unmarked) [Compound 39, 4-(5-bromopyridin-2-yl)-3,7,7-trimethyl-6,7,8,9-tetrahydro-1H-pyrazolo[3,4-b]quinolin-5(4H)-one] | > 25 µM | –
– | Cc1[nH]nc2c1C(c1ccn[nH]1)C1=C(CC(C)(C)CC1=O)N2 (centres unmarked) [Compound 40, 3,7,7-trimethyl-4-(1H-pyrazol-5-yl)-6,7,8,9-tetrahydro-1H-pyrazolo[3,4-b]quinolin-5(4H)-one] | > 25 µM | –
– | Cc1[nH]nc2c1C(C)(c1ccccc1)C1=C(CC(C)(C)CC1=O)N2 (centres unmarked) [Compound 67, 3,4,7,7-tetramethyl-4-phenyl-6,7,8,9-tetrahydro-2H-pyrazolo[3,4-b]quinolin-5(4H)-one] | > 25 µM | –
4.48 µM | COC(=O)c1[nH]nc2c1C(C)(c1ccccc1)C1=C(CC(C)(C)CC1=O)N2 (centres unmarked) [Compound 104] | – | –
4.55 µM | CC1(C)CC(=O)C2=C(C1)Nc1n[nH]c(Cl)c1C2(C)c1ccccc1 (centres unmarked) [Compound 110] | – | –
2.98 µM | CC1(C)CC(=O)C2=C(C1)Nc1n[nH]c(Br)c1C2(C)c1ccccc1 (centres unmarked) [Compound 111] | – | –

Compound | EC50 [2] | EC50 [1, 4] | also measured
Cc1[nH]nc2c1C(c1ccccc1)(C(F)(F)F)C1=C(CC(C)(C)CC1=O)N2 (centres unmarked) [Compound 92, 1,6,6-trimethyl-9-phenyl-9-(trifluoromethyl)-5,6,7,9-tetrahydro-2H-pyrazolo[3,4-b]quinolin-8(4H)-one] | 20.4 µM | – | –
